Experimental findings from ChEMBL document CHEMBL2176973, “Synthesis and SAR Studies of Fused Oxadiazines as γ-Secretase Modulators for Treatment of Alzheimer's Disease” (ACS Med Chem Lett, 2012) are described below.

Molecules are shown by their SMILES.

Series [1] addresses Gamma-secretase (Homo sapiens) (UniProt Q96BI3+Q9NZ42+Q8WW43+P49768+Q92542+P49810). Nature of the series: Modulation of gamma-secretase expressed in HEK293 cells co-expressing APPsw-lon assessed as reduction of total amyloid beta/amyloid-beta-42 ratio by sandwich immunoassay. It is filed as cell-based.
Series [2] concerns the target Gamma-secretase. Nature of the series: Modulation of gamma-secretase expressed in HEK293 cells co-expressing APPsw-lon assessed as reduction of amyloid-beta-42 level by sandwich immunoassay. It is filed as cell-based, Homo sapiens.
Series [3] can be described thus: Plasma concentration in rat at 10 mg/kg, po after 3 hrs. Further details: dose 10 mg/kg, route oral. It is filed as ADME, organism-based.
Series [4] is described as follows: Ratio of drug level in brain to plasma rat at 10 mg/kg, po after 6 hrs. Further details: dose 10 mg/kg, route oral. The series is classed as ADME, organism-based. The settings on record: read-out: BPR.
The nature of series [5]: Drug level in rat brain at 10 mg/kg, po after 6 hrs. It is filed as ADME, organism-based. Further details: dose 10 mg/kg, route oral. The settings on record: read-out: Drug uptake.
Series [6] in a line: AUC (0 to 6 hrs) in rat plasma at 10 mg/kg, po. The series is classed as ADME, organism-based. Further details: time < 6 hr, dose 10 mg/kg, route oral.
The test system of series [7] is Rattus norvegicus. Nature of the series: Antialzheimer's activity in rat assessed as reduction of amyloid-beta-42 level in CSF at 10 mg/kg, po after 3 hrs by AlphaLISA amyloid assay. It is filed as functional.

With `COc1cc(/C=C2\CCCN3C2=NOCC3(CO)c2ccc(F)cc2)ccc1-n1cnc(C)c1` (racemic), the Ratio in series [1] is 2. Moreover, the IC50 in series [2] came to 13300 nM.
Taken in the same sequence, the figures for `COc1cc(/C=C2\CCCN3C(=O)CON=C23)ccc1-n1cnc(C)c1` were 8 and 2500 nM.
The molecule `COc1cc(/C=C2\CCCN3C2=NOC[C@@H]3c2cc(F)cc(Cl)c2)ccc1-n1cnc(C)c1` yielded a concentration at 3 h in series [3] of 7.2 µM. For the same molecule, in series [4], the Kp at 6 h was determined as 1.1. Besides, the concentration at 6 h in series [5] was found to be 1340 ng/g. Besides, the AUC(0-t) at 6 h in series [6] came to 24.6 µM·h. Besides, the inhibition in vivo at 10 mg/kg in series [7] came to 62%. Also, the Ratio in series [1] was 507. Further, the 50% inhibitory concentration (IC50) in series [2] came out at 39 nM.
Take `CCc1csc(C[C@H]2CON=C3/C(=C/c4ccc(-n5cnc(C)c5)c(OC)c4)CCCN32)n1`: the Ratio in series [1] stood at 3. Also, in series [2], the IC50 was 6400 nM.
Taken in the same sequence, the figures for `COc1cc(/C=C2\CCCN3C2=NOC[C@@H]3C2CCOCC2)ccc1-n1cnc(C)c1` were 11 and 1900 nM.
In the same order, the values of `COc1cc(/C=C2\CCCN3C2=NOCC3C(O)c2ccc(Cl)cc2)ccc1-n1cnc(C)c1` (centres undefined) are 49 and 300 nM.
Taken in the same sequence, the figures for `COc1cc(/C=C2\CCCN3C2=NO[C@]3(CO)c2ccc(F)cc2)ccc1-n1cnc(C)c1` were 488 and 29 nM.
Regarding `COc1cc(/C=C2\O[C@@H](C)CN3C2=NOC[C@@H]3c2cc(F)cc(F)c2)ccc1-n1cnc(C)c1`, in series [1], the Ratio stood at 550. For the same molecule, the IC50 in series [2] amounted to 35 nM.
In the same order, the values of `COc1cc(/C=C2\CCCN3C2=NOCC32CCOc3ccc(F)cc32)ccc1-n1cnc(C)c1` (racemic) are 50 and 400 nM.
Take `COc1cc(/C=C2\CCCN3CCON=C23)ccc1-n1cnc(C)c1`: in series [1], the Ratio was determined as 7. The IC50 in series [2] came to 3100 nM.
In the same order, the values of `COc1cc(/C=C2\CCCN3C2=NOC32CCOc3ccc(F)cc32)ccc1-n1cnc(C)c1` (centres undefined) are 223 and 58 nM.
In the same order, the values of `COc1cc(/C=C2\CCCN3C2=NOC[C@@H]3CN2CCOCC2)ccc1-n1cnc(C)c1` are 5 and 3700 nM.
In the same order, the values of `COc1cc(/C=C2\CCCN3C2=NOCC3(C)c2ccc(F)cc2)ccc1-n1cnc(C)c1` (racemic) are 69 and 230 nM.
For the molecule `COc1cc(/C=C2\CCCN3C2=NOC3(C)c2ccc(F)cc2)ccc1-n1cnc(C)c1` (centres undefined), the Ratio in series [1] worked out at 237. The IC50 in series [2] was 58 nM.
`COc1cc(/C=C2\CCCN3C2=NOC[C@@H]3C(C)C)ccc1-n1cnc(C)c1`: the Ratio in series [1] was found to be 34. In series [2], the IC50 amounted to 530 nM.
Taken in the same sequence, the figures for `COc1cc(/C=C2\CCCN3C2=NOC[C@@H]3CC(=O)N2CCCCC2)ccc1-n1cnc(C)c1` were 13 and 1500 nM.
In the same order, the values of `COc1cc(/C=C2\CCCN3CC(c4nccn4C)ON=C23)ccc1-n1cnc(C)c1` (racemic) are 3 and 6700 nM.
For `COc1cc(/C=C2\CCCN3CC(CO[Si](c4ccccc4)(c4ccccc4)C(C)(C)C)ON=C23)ccc1-n1cnc(C)c1` (racemic), the Ratio in series [1] was 80. The IC50 in series [2] was found to be 56 nM.
Taken in the same sequence, the figures for `COc1cc(/C=C2\CCCN3C2=NOC[C@@H]3CO)ccc1-n1cnc(C)c1` were 6 and 3300 nM.
In the same order, the values of `COc1cc(/C=C2\O[C@H](C)CN3C2=NOC[C@@H]3c2cc(F)cc(F)c2)ccc1-n1cnc(C)c1` are 1220 and 16 nM.
Taken in the same sequence, the figures for `COc1cc(/C=C2\CCCN3CC(COCc4ccccc4)ON=C23)ccc1-n1cnc(C)c1` (racemic) were 80 and 250 nM.
On to `COc1cc(/C=C2\CCCN3CC(c4ccccc4)ON=C23)ccc1-n1cnc(C)c1` (racemic), for which, in series [1], the Ratio was 91. Moreover, the IC50 in series [2] came to 210 nM.
Taken in the same sequence, the figures for `COc1cc(/C=C2\CCCN3C2=NOC[C@@H]3CNC(=O)c2cccc(Cl)c2)ccc1-n1cnc(C)c1` were 24 and 820 nM.
In the same order, the values of `COc1cc(/C=C2\CCCN3C2=NOC[C@@H]3Cc2ccccc2)ccc1-n1cnc(C)c1` are 238 and 80 nM.
Taken in the same sequence, the figures for `COc1cc(/C=C2\CCCN3C2=NOC[C@@H]3CS(C)(=O)=O)ccc1-n1cnc(C)c1` were 1 and 19000 nM.
As for `COc1cc(/C=C2\CCCN3C2=NOC[C@@H]3C(C)(C)C)ccc1-n1cnc(C)c1`, the Ratio in series [1] amounted to 162. Also, in series [2], the IC50 is 120 nM.
As to `COc1cc(/C=C2\CCCN3C2=NOC3(CO)c2ccc(F)cc2)ccc1-n1cnc(C)c1` (centres undefined), in series [1], the Ratio turned out to be 289. Moreover, the IC50 in series [2] was found to be 75 nM.
Turning to `COc1cc(/C=C2\CCCN3CC(C(O)c4cc(F)cc(F)c4)ON=C23)ccc1-n1cnc(C)c1` (racemic), in series [1], the Ratio is 265. Moreover, the half-inhibitory concentration (IC50) in series [2] came to 76 nM.
As to `COc1cc(/C=C2\CCCN3C2=NOC[C@@H]3COCc2ccccc2)ccc1-n1cnc(C)c1`, the Ratio in series [1] came out at 120. Besides, in series [2], the concentration for half-maximal inhibition (IC50) turned out to be 100 nM.
In the same order, the values of `COc1cc(/C=C2\CCCN3CC(c4cnccn4)ON=C23)ccc1-n1cnc(C)c1` (racemic) are 2 and 9000 nM.
Consider `COc1cc(/C=C2\CCCN3CC(Cc4ccccc4)ON=C23)ccc1-n1cnc(C)c1` (racemic), for which, in series [1], the Ratio came out at 241. In addition, the IC50 in series [2] turned out to be 83 nM.
As to `COc1cc(/C=C2\O[C@H](C)CN3C2=NOC[C@@H]3c2cc(F)c(F)c(F)c2)ccc1-n1cnc(C)c1`, the inhibition in vivo at 10 mg/kg in series [7] came out at 60%. Further, the Ratio in series [1] was determined as 1170. Also, in series [2], the IC50 is 11 nM.
As for `COc1cc(/C=C2\CCCN3CC(CO)ON=C23)ccc1-n1cnc(C)c1` (racemic), the Ratio in series [1] worked out at 4. For the same molecule, the IC50 in series [2] worked out at 5400 nM.
`COc1cc(/C=C2\CCCN3C2=NOC[C@@H]3CC(C)C)ccc1-n1cnc(C)c1`: the Ratio in series [1] worked out at 149. The IC50 in series [2] was 73 nM.
For `COc1cc(/C=C2\CCCN3C2=NOC[C@@H]3c2cc(F)c(OC)c(F)c2)ccc1-n1cnc(C)c1`, in series [3], the concentration at 3 h came to 6.3 µM. In addition, the Kp at 6 h in series [4] came to 1.1. Further, in series [5], the concentration at 6 h is 268 ng/g. This molecule returned an AUC(0-t) at 6 h in series [6] of 22.7 µM·h. Moreover, the inhibition in vivo at 10 mg/kg in series [7] was found to be 26%. The Ratio in series [1] turned out to be 459. Further, the 50% inhibitory concentration (IC50) in series [2] worked out at 44 nM.
With `COc1cc(/C=C2\CCCN3CC(COc4ccccc4)ON=C23)ccc1-n1cnc(C)c1` (racemic), the Ratio in series [1] was 147. In addition, the IC50 in series [2] is 140 nM.
In the same order, the values of `COc1cc(/C=C2\O[C@@H](C)CN3C2=NOC[C@@H]3c2cc(F)c(F)c(F)c2)ccc1-n1cnc(C)c1` are 320 and 46 nM.
Taken in the same sequence, the figures for `COc1cc(/C=C2\CCCN3C(=O)C(c4cc(F)cc(F)c4)ON=C23)ccc1-n1cnc(C)c1` (racemic) were 18 and 1100 nM.
As for `COc1cc(/C=C2\CCCN3CC(c4cccc5ccccc45)ON=C23)ccc1-n1cnc(C)c1` (racemic), in series [1], the Ratio is 158. The IC50 in series [2] came to 130 nM.
